Measured values published in paper PMC12384813.

Columns and labels:
SVG p12 cells [1] = experiment: Cellular uptake of ^64Cu-NOTA conjugates; type: cell-based, human; settings: Table S1
U87 MG cells [2] = experiment: Subcellular localization (nucleus/cytoplasm fractions); type: cell-based, human
Protocol: (§1) The nucleus and cytoplasm of U87 MG and SVG p12 cells were extracted following established procedures as previously reported. […] After incubation, cells were washed and incubated on ice with CSK buffer (0.5% Triton X-100, 300 mM sucrose, 100 mM NaCl, 1 mM EDTA, 2 mM MgCl2, and 10 mM HEPES, pH 6.8) for 2 min. After 5 min centrifugation, supernatant containing cytoplasmic extract was collected and transferred in labeled tubes. The resulting pellets were incubated on ice for 2 min with CSK buffer without Triton X-100 to extract the nuclear fraction. The buffer containing the nuclear fraction was collected into separate tubes. The radioactivity in both cytoplasmic and nuclear fractions was measured using a gamma counter (HIDEX Automatic Gamma Counter 2014).

SVG p12 cells [3] = experiment: as above; type: cell-based, human
Protocol: as §1

U87 MG cells [4] = experiment: Internalization of ^64Cu-NOTA conjugates (glycine-HCl wash); type: cell-based, human
Protocol: (§2) U87 MG (1 × 10^5 per well) were seeded in corning 24-well plates and cultured in DMEM with 10% FBS at 37 °C. […] For uptake assay, cells were washed with PBS to collect surface-bound and internalized activity, and for internalization assay, glycine-HCl wash was performed to remove surface bound activity. Moreover, cells were harvested, counted, and radioactivity was measured using a gamma counter. Results were expressed as percentage of total activity (%) in counts per min (CPM)/10^6 cells. For efflux studies, U87 MG cells were incubated with the complexes for 1 h, then washed with PBS, and replaced with fresh medium. The retained activity was measured over 0 to 24 h after washing.

[5] = Plasma stability by radio-TLC; type: in vitro ADME; settings: 48 h, 37 °C, mouse plasma
Protocol: To precipitate plasma proteins, the samples were treated twice with ethanol (1:1, v/v), vortexed for 1 min, and centrifuged at 7000 rpm for 10 min. The soluble fraction was separated by ultracentrifugation, and radioactivity was measured. The resulting supernatant was analyzed by radio-TLC on C18 plates. […] Radio-TLC was developed using 0.1 M sodium citrate buffer (pH 5.5), and radiodetection was performed with an Instant Imager system (BioScan, Washington, DC, USA) (Figure S5C). The supernatant fraction was then analyzed using the same methodology described above.

bovine serum albumin = bovine serum albumin (Bos taurus, UniProt P02769); experiment: Binding to bovine serum albumin; type: in vitro ADME
[6] = tested on: SVG p12 normal glial cells
U87 MG cells [7] = experiment: Efflux kinetics of ^64Cu-NOTA conjugates; type: cell-based, human; settings: Table S3
Protocol: as §2

SVG p12 cells [8] = experiment: Efflux kinetics of ^64Cu-NOTA conjugates; type: cell-based, human; settings: Table S3
SVG p12 cells [9] = experiment: Internalization of ^64Cu-NOTA conjugates (glycine-HCl wash); type: cell-based, human; settings: Table S2
U87 MG cells [10] = experiment: Cellular uptake of ^64Cu-NOTA conjugates; type: cell-based, human
Protocol: as §2

U87 MG cells [11] = experiment: cells; type: cell-based, human; settings: U87 MG, 24 h, vs ^natCu-NOTA-TP-c(RGDfK)
Protocol: In this procedure, U87 MG (2 × 10^4 cells per well) were seeded in BD falcon transparent 96-well plates and incubated for 24 h.

[12] = 0.5 h after 1 h incubation and wash

Chain of bovine serum albumin (P02769 25-607): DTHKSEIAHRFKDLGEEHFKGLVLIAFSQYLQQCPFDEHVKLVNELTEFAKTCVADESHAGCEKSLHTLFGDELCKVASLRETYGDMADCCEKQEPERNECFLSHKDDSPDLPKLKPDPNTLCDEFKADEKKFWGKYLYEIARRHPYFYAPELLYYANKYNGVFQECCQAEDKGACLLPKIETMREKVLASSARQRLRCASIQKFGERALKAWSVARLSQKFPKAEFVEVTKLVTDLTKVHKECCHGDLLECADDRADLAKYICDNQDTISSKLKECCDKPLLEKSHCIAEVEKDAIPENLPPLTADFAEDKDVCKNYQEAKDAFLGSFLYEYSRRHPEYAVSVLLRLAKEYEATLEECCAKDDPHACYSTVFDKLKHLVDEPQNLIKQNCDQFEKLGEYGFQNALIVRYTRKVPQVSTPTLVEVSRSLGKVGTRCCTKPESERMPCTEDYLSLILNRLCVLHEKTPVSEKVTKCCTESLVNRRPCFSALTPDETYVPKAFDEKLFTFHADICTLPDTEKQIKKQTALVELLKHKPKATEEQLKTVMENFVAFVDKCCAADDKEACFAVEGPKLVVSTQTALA

With `N=C(N)NCCC[C@@H]1NC(=O)[C@H](CCCCNC(=O)[C@H](CCCCNC(=O)c2cc(-c3ccccn3)nc(-c3ccccn3)c2)NC(=O)COCCOCCNC(=O)CN2CCN(CC(=O)O)CCN(CC(=O)O)CC2)NC(=O)[C@@H](Cc2ccccc2)NC(=O)[C@H](CC(=O)O)NC(=O)CNC1=O` [metal not drawn] the “Uptake 1h SVG p12” value (SVG p12 cells [1]; 1 h) was 3.63 ± 0.21 % total activity (CPM) /106 cells, the “Uptake 2h SVG p12” value (SVG p12 cells [1]; 2 h) was 4.96 ± 0.89 % total activity (CPM) /106 cells and the “Uptake 4h SVG p12” value (SVG p12 cells [1]; 4 h) was 5.80 ± 0.49 % total activity (CPM) /106 cells. The “Uptake 24h SVG p12” value (SVG p12 cells [1]; 24 h) was 10.87 ± 2.17 % total activity (CPM) /106 cells, the “Uptake 48h SVG p12” value (SVG p12 cells [1]; 48 h) was 8.38 ± 1.70 % total activity (CPM) /106 cells and the cytoplasmic distribution (U87 MG cells [2]; 24 h) was 17.4 ± 1.5%. It also gave a nuclear uptake (U87 MG cells [2]; 24 h) of 6.0 ± 0.5%, a cytoplasmic distribution (U87 MG cells [2]; 48 h) of 21.0 ± 0.7% and a cytoplasmic distribution (U87 MG cells [2]; 72 h) of 15.4 ± 0.5%. For the same compound, the nuclear uptake (SVG p12 cells [3]; SVG p12, 24 h) was 2.5 ± 0.8%, the nuclear uptake (SVG p12 cells [3]; SVG p12, 48 h) was 0.9 ± 0.2% and the nuclear uptake (SVG p12 cells [3]; SVG p12, 72 h) was 0.9 ± 0.3%. For the same compound, the “Internalized activity 1h U87 MG” value (U87 MG cells [4]; 1 h, Table S2) was 5.50 ± 0.80 % total activity (CPM) /106 cells, the internalized fraction (U87 MG cells [4]; 1 h, U87 MG) was 5.5 ± 0.8 % CPM/10^6 cells and the “Internalized activity 2h U87 MG” value (U87 MG cells [4]; 2 h, Table S2) was 5.67 ± 0.67 % total activity (CPM) /106 cells. The “Internalized activity 4h U87 MG” value (U87 MG cells [4]; 4 h, Table S2) was 7.35 ± 1.31 % total activity (CPM) /106 cells, the “internalization in U87 MG cells” value (U87 MG cells [4]; 24 h) was 28.0 ± 1.0% and the “Internalized activity 24h U87 MG” value (U87 MG cells [4]; 24 h, Table S2) was 28.03 ± 1.02 % total activity (CPM) /106 cells. For the same compound, the “internalization compared to [^64Cu]Cu-NOTA-TP” value (U87 MG cells [4]; 24 h, U87 MG) was “over 1.5 fold”, the “internalization compared to [^64Cu]Cu-NOTA-c(RGDfK)” value (U87 MG cells [4]; 24 h, U87 MG) was “more than 2.4 fold” and the internalized fraction (U87 MG cells [4]; 24 h, U87 MG) was 28.0 ± 1.0 % CPM/10^6 cells. For the same compound, the “Internalized activity 48h U87 MG” value (U87 MG cells [4]; 48 h, Table S2) was 24.08 ± 1.63 % total activity (CPM) /106 cells, the “free ^64Cu in plasma supernatant by radio-TLC” value [5] was “no detectable free ^64Cu” and the “binding to bovine serum albumin” value (bovine serum albumin) was 52%. The “toxicity in normal SVG p12 astrocytes” value [6] was “minimal toxicity”, the “Efflux (retained activity) 0.5h U87 MG” value (U87 MG cells [7]; [12]) was 88.93 ± 9.47 % total activity (CPM) /106 cells and the “Efflux (retained activity) 1h U87 MG” value (U87 MG cells [7]; 1 h after wash) was 93.32 ± 1.47 % total activity (CPM) /106 cells. For the same compound, the “Efflux (retained activity) 2h U87 MG” value (U87 MG cells [7]; 2 h after wash) was 83.19 ± 4.21 % total activity (CPM) /106 cells, the “Efflux (retained activity) 4h U87 MG” value (U87 MG cells [7]; 4 h after wash) was 76.55 ± 2.59 % total activity (CPM) /106 cells and the “Efflux (retained activity) 24h U87 MG” value (U87 MG cells [7]; 24 h after wash) was 51.36 ± 2.08 % total activity (CPM) /106 cells. For the same compound, the “Efflux (retained activity) 0.5h SVG p12” value (SVG p12 cells [8]; [12]) was 85.25 ± 8.63 % total activity (CPM) /106 cells, the “Efflux (retained activity) 1h SVG p12” value (SVG p12 cells [8]; 1 h after wash) was 75.50 ± 10.93 % total activity (CPM) /106 cells and the “Efflux (retained activity) 2h SVG p12” value (SVG p12 cells [8]; 2 h after wash) was 54.29 ± 8.47 % total activity (CPM) /106 cells. For the same compound, the “Efflux (retained activity) 4h SVG p12” value (SVG p12 cells [8]; 4 h after wash) was 59.78 ± 2.75 % total activity (CPM) /106 cells, the “Efflux (retained activity) 24h SVG p12” value (SVG p12 cells [8]; 24 h after wash) was 31.32 ± 1.01 % total activity (CPM) /106 cells and the “Internalized activity 1h SVG p12” value (SVG p12 cells [9]; 1 h) was 2.85 ± 0.56 % total activity (CPM) /106 cells. For the same compound, the “Internalized activity 2h SVG p12” value (SVG p12 cells [9]; 2 h) was 2.46 ± 0.90 % total activity (CPM) /106 cells, the “Internalized activity 4h SVG p12” value (SVG p12 cells [9]; 4 h) was 2.79 ± 0.38 % total activity (CPM) /106 cells and the “Internalized activity 24h SVG p12” value (SVG p12 cells [9]; 24 h) was 7.40 ± 1.43 % total activity (CPM) /106 cells. For the same compound, the “Internalized activity 48h SVG p12” value (SVG p12 cells [9]; 48 h) was 8.21 ± 0.74 % total activity (CPM) /106 cells, the “Uptake 1h U87 MG” value (U87 MG cells [10]; 1 h, 37 °C, Table S1) was 6.21 ± 1.58 % total activity (CPM) /106 cells and the “Uptake 2h U87 MG” value (U87 MG cells [10]; 2 h, Table S1) was 6.89 ±1.73 % total activity (CPM) /106 cells. For the same compound, the “Uptake 4h U87 MG” value (U87 MG cells [10]; 4 h, Table S1) was 10.33 ± 1.86 % total activity (CPM) /106 cells, the “uptake in U87 MG cells” value (U87 MG cells [10]; 24 h) was 38.8 ± 1.8% and the “Uptake 24h U87 MG” value (U87 MG cells [10]; 24 h, Table S1) was 38.76 ± 1.82 % total activity (CPM) /106 cells. The “uptake relative to [^64Cu]Cu-NOTA-TP” value (U87 MG cells [10]; 24 h, U87 MG) was “approximately 1.3 times”, the “uptake relative to [^64Cu]Cu-NOTA-c(RGDfK)” value (U87 MG cells [10]; 24 h, U87 MG) was ~2.7 times and the “Uptake 48h U87 MG” value (U87 MG cells [10]; 48 h, Table S1) was 37.56 ± 1.30 % total activity (CPM) /106 cells. For the same compound, the “improvement in potency compared to nonradioactive analogue” value (U87 MG cells [11]) was “approximately 2500 fold”.
